Reference: publication PMC7822874, “Chemoprotective antimalarials identified through quantitative high-throughput screening of Plasmodium blood and liver stage parasites” (Scientific Reports, 2021)
Read-outs that look alike come from different tables or passages of the source.

Tests used:
[1] = test system: P. berghei-ANKA-GFP-LucCON liver stage parasites in HepG2-A16-CD81EGFP cells; assay: P. berghei liver stage Pb-Luc assay, Method 1 (UCSD, 1536-well); format: cell-based, Plasmodium berghei; conditions: Plasmodium berghei, 48 h, average of 2 wells, 1536-well plate; for activity at 1 µM: nominal 1 uM (10 mM stock), […] for 15 mM, 1.2 uM for 12 mM, 2 uM for 20 mM stock; for activity at 3 µM: nominal 3 uM (10 mM stock), 4.5 uM for 15 mM, 3.6 uM for 12 mM, 6 uM for 20 mM stock
[2] = test system: HepG2-A16-CD81EGFP cells
[3] = in vitro; conditions: human, HepG2-A16-CD81EGFP cells, uninfected
[4] = repeat 1, read-out: Pb-Luc signal, 1 uM, repeat 1
[5] = repeat 2, read-out: Pb-Luc signal, 1 uM, repeat 2
[6] = repeat 3, read-out: Pb-Luc signal, 1 uM, repeat 3
[7] = repeat 1, read-out: Pb-Luc signal, 3 uM, repeat 1
[8] = repeat 2, read-out: Pb-Luc signal, 3 uM, repeat 2
[9] = repeat 3, read-out: Pb-Luc signal, 3 uM, repeat 3
[10] = nominal 1 uM (10 mM stock), […] for 15 mM, 1.2 uM for 12 mM, 2 uM for 20 mM stock, average of 2 wells, repeat 2
[11] = nominal 3 uM (10 mM stock), 4.5 uM for 15 mM, 3.6 uM for 12 mM, 6 uM for 20 mM stock, average of 2 wells, repeat 2

| Compound | activity at 1 µM [1, 4] | activity at 1 µM [1, 5] | activity at 1 µM [1, 6] | activity at 3 µM [1, 7] | activity at 3 µM [1, 8] | activity at 3 µM [1, 9] | HepG2 viability signal, 1 uM, repeat 2 [2, 10] | HepG2 viability signal, 3 uM, repeat 2 [2, 11] | viability at 48 h, 1 µM [3] | viability at 48 h, 3 µM [3] | HepG2 viability signal, 1 uM, repeat 2 [2] | HepG2 viability signal, 3 uM, repeat 2 [2] |
| --- | --- | --- | --- | --- | --- | --- | --- | --- | --- | --- | --- | --- |
| COc1cccc(CN2CCC(Oc3ccc(-c4noc(C5CC5)n4)cc3)C2)c1 (stereo not drawn) [NCGC00440915-01] | 92.7% | 110% | 96% | 64.2% | 65.8% | 35.3% | 97.97% | 94.86% | 102% | 96.6% | – | – |
| O=C(O)c1ccc(-c2nc3cnccc3[nH]2)cc1 [NCGC00375713-01] | 93.2% | 89.1% | 137% | 91.8% | 93.1% | 98.5% | 104.68% | 103.76% | 105% | 104% | – | – |
| C[C@H]1[C@@H]2[C@H]3OC(=O)[C@@H](C)[C@@H]3CC[C@@]2(C)CC[C@@H]1NC(=O)CC(C)(C)C [NCGC00392703-01] | 105% | 129% | 103% | 126% | 109% | 99.6% | 102.40% | 102.42% | 95.8% | 99% | – | – |
| COc1ccc(CN2CCCC3(C2)C(NC2CCCCC2)=NC(=O)N3c2cc(F)cc(F)c2)cc1 (stereo not drawn) [NCGC00373972-01] | 89.2% | 98.6% | 137% | 120% | 103% | 87.7% | 102.91% | 99.86% | 107% | 105% | – | – |
| COc1ccccc1NC(=O)Cn1cccc1-c1nc(-c2ccc(F)cc2)no1 [NCGC00445349-01] | 128% | 112% | 138% | 108% | 129% | 93.3% | 104.40% | 104.77% | 107% | 107% | – | – |
| Cc1ccc([S+](=O)([O-])N2CCC(OC3CCN(Cc4ccccc4)CC3)CC2)c(C)c1 [NCGC00444944-01] | 76.1% | 74% | 76.6% | 78.2% | 61.2% | 56.1% | 105.13% | 100.76% | 111% | 107% | – | – |
| Cc1ccccc1CC(=O)NCc1nnc2cc(-c3nc(C4CC4)no3)ccn12 [NCGC00457761-01] | 130% | 129% | 103% | 86.9% | 122% | 133% | 102.90% | 101.49% | 109% | 107% | – | – |
| COc1ccc(-c2noc(-c3cccn3CC(=O)Nc3ccc(C)cc3Cl)n2)cc1F [NCGC00445494-01] | 118% | 111% | 98.1% | 77.8% | 91.7% | 106% | 100.81% | 103.68% | 99.5% | 104% | – | – |
| CCOC(=O)C1(Cc2ccccc2C(F)(F)F)CCNCC1 [NCGC00433719-01] | 99.2% | 89.8% | 165% | 76.2% | 96.6% | 91.6% | 106.17% | 103.00% | 108% | 105% | – | – |
| COc1ccc(Cl)cc1[S+](=O)([O-])N1CCC2(CCCNC2)C1 (stereo not drawn) [NCGC00431241-01] | 96.7% | 98.8% | 61.1% | 98.4% | 74.5% | 79.2% | 104.68% | 95.82% | 112% | 108% | – | – |
| CCC(=O)N1CCc2cc(Br)cc([S+](=O)([O-])N3CCCC(C(=O)Nc4ccc(OC)c(Cl)c4)C3)c21 (stereo not drawn) [NCGC00106201-01] | 76.1% | 86.6% | 75.8% | 53.5% | 100% | 60% | – | – | 90.7% | 82.3% | 91.30% | 86.54% |
| O=C1NCc2ccccc2CC12CCCN(Cc1ccccc1)C2 (stereo not drawn) [NCGC00377595-01] | 90.7% | 117% | 140% | 93.9% | 108% | 117% | 103.34% | 104.13% | 104% | 104% | – | – |
| COc1ccc(OC)c(NC(=O)c2ccc3c(c2)N([S+](=O)([O-])c2ccccc2)CC3)c1 [NCGC00430430-01] | 111% | 108% | 91.3% | 102% | 79.3% | 99.8% | – | – | 112% | 109% | 105.03% | 97.67% |
| COc1ccc(-c2noc(-c3cccn3CC(=O)Nc3cccc(Cl)c3C)n2)cc1F [NCGC00445510-01] | 103% | 114% | 132% | 102% | 91.7% | 124% | 99.09% | 100.27% | 104% | 105% | – | – |
| CN1c2cc(C(=O)Nc3ccc(C(F)(F)F)cc3)ccc2C(=O)N2CCCCC21 (stereo not drawn) [NCGC00452394-01] | 89.2% | 103% | 126% | 97.6% | 85.9% | 102% | 105.25% | 108.50% | 104% | 110% | – | – |
